Results published in PubChem BioAssay (NCI).
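1) Cells in 96-well plates. 2) Compound, 48 h, 5 concentrations. 3) Linear interpolation between surrounding doses. 4) Unreached endpoint = highest concentration. TGI is the concentration that stops growth completely.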

Legend:
Assay in all cases: growth of human tumour cells (NCI), 48 h
IGROV1 ovarian = system: IGROV1 ovarian
SR leukemia = system: SR leukemia
M14 melanoma = system: M14 melanoma
OVCAR-5 ovarian = system: OVCAR-5 ovarian
LOX IMVI melanoma = system: LOX IMVI melanoma
SN12C renal = system: SN12C renal
UACC-257 melanoma = system: UACC-257 melanoma
SK-MEL-28 melanoma = system: SK-MEL-28 melanoma
CCRF-CEM leukemia = system: CCRF-CEM leukemia
SW-620 colon = system: SW-620 colon
A498 renal = system: A498 renal
BT-549 breast = system: BT-549 breast
SK-MEL-5 melanoma = system: SK-MEL-5 melanoma
HCT-15 colon = system: HCT-15 colon
NCI/ADR-RES ovarian = system: NCI/ADR-RES ovarian
T-47D breast = system: T-47D breast
SNB-19 CNS = system: SNB-19 CNS
NCI-H23 lung = system: NCI-H23 lung
HOP-92 NSCLC = system: HOP-92 NSCLC
TK-10 renal = system: TK-10 renal
SF-268 CNS = system: SF-268 CNS
HCC-2998 colon = system: HCC-2998 colon
OVCAR-4 ovarian = system: OVCAR-4 ovarian
K-562 leukemia = system: K-562 leukemia
HCT-116 colon = system: HCT-116 colon
786-0 renal = system: 786-0 renal
SF-295 CNS = system: SF-295 CNS
HL-60(TB) leukemia = system: HL-60(TB) leukemia
SK-OV-3 ovarian = system: SK-OV-3 ovarian
RXF 393 renal = system: RXF 393 renal
MCF7 breast = system: MCF7 breast
PC-3 prostate = system: PC-3 prostate
HT29 colon = system: HT29 colon
HOP-62 NSCLC = system: HOP-62 NSCLC
NCI-H460 lung = system: NCI-H460 lung
RPMI-8226 leukemia = system: RPMI-8226 leukemia
ACHN renal = system: ACHN renal
HS 578T breast = system: HS 578T breast
OVCAR-8 ovarian = system: OVCAR-8 ovarian
A549 NSCLC = system: A549 NSCLC
DU-145 prostate = system: DU-145 prostate
MDA-MB-435 = system: MDA-MB-435
UO-31 renal = system: UO-31 renal
MALME-3M melanoma = system: MALME-3M melanoma
NCI-H226 lung = system: NCI-H226 lung
OVCAR-3 ovarian = system: OVCAR-3 ovarian
UACC-62 melanoma = system: UACC-62 melanoma
U251 CNS = system: U251 CNS
EKVX NSCLC = system: EKVX NSCLC
MOLT-4 leukemia = system: MOLT-4 leukemia
MDA-N = system: MDA-N
MDA-MB-231 breast = system: MDA-MB-231 breast
SNB-75 CNS = system: SNB-75 CNS
SF-539 CNS = system: SF-539 CNS
KM12 colon = system: KM12 colon
CAKI-1 renal = system: CAKI-1 renal
SK-MEL-2 melanoma = system: SK-MEL-2 melanoma
COLO 205 colon = system: COLO 205 colon
NCI-H522 lung = system: NCI-H522 lung

N#CCOc1ccc(/C=C/C(=O)c2ccc(Cl)cc2)cc1
TGI (IGROV1 ovarian): 60.4 µM
TGI (SR leukemia): > 100 µM
TGI (M14 melanoma): > 100 µM
TGI (OVCAR-5 ovarian): > 100 µM
TGI (LOX IMVI melanoma): 37.5 µM
TGI (SN12C renal): > 100 µM
TGI (UACC-257 melanoma): > 100 µM
TGI (SK-MEL-28 melanoma): > 100 µM
TGI (CCRF-CEM leukemia): > 100 µM
TGI (SW-620 colon): 70.4 µM
TGI (A498 renal): 49.5 µM
TGI (BT-549 breast): 11.7 µM
TGI (SK-MEL-5 melanoma): 43.6 µM
TGI (HCT-15 colon): > 100 µM
TGI (NCI/ADR-RES ovarian): 48.5 µM
TGI (T-47D breast): 61.2 µM
TGI (SNB-19 CNS): 61.7 µM
TGI (NCI-H23 lung): 76.3 µM
TGI (HOP-92 NSCLC): 81.4 µM
TGI (TK-10 renal): 74.5 µM
TGI (SF-268 CNS): > 100 µM
TGI (HCC-2998 colon): 98.8 µM
TGI (OVCAR-4 ovarian): > 100 µM
TGI (K-562 leukemia): > 100 µM
TGI (HCT-116 colon): 27.8 µM
TGI (786-0 renal): 48.1 µM
TGI (SF-295 CNS): 53.9 µM
TGI (HL-60(TB) leukemia): > 100 µM
TGI (SK-OV-3 ovarian): 37.3 µM
TGI (RXF 393 renal): 38.5 µM
TGI (MCF7 breast): 54.1 µM
TGI (PC-3 prostate): > 100 µM
TGI (HT29 colon): > 100 µM
TGI (HOP-62 NSCLC): 57.5 µM
TGI (NCI-H460 lung): 64.2 µM
TGI (RPMI-8226 leukemia): > 100 µM
TGI (ACHN renal): > 100 µM
TGI (HS 578T breast): 50.9 µM
TGI (OVCAR-8 ovarian): 93.6 µM
TGI (A549 NSCLC): > 100 µM
TGI (DU-145 prostate): > 100 µM
TGI (MDA-MB-435): > 100 µM
TGI (UO-31 renal): 88.6 µM
TGI (MALME-3M melanoma): 58.4 µM
TGI (NCI-H226 lung): > 100 µM
TGI (OVCAR-3 ovarian): > 100 µM
TGI (UACC-62 melanoma): 41.6 µM
TGI (U251 CNS): 99.3 µM
TGI (EKVX NSCLC): > 100 µM
TGI (MOLT-4 leukemia): > 100 µM
TGI (MDA-N): > 100 µM
TGI (MDA-MB-231 breast): 85.5 µM
TGI (SNB-75 CNS): 37.2 µM
TGI (SF-539 CNS): 36.4 µM
TGI (KM12 colon): 73.5 µM

COc1cccc2c3ccccc3c3nc[nH]c3c12
TGI (IGROV1 ovarian): > 100 µM
TGI (SR leukemia): 46.6 µM
TGI (M14 melanoma): > 100 µM
TGI (OVCAR-5 ovarian): > 100 µM
TGI (LOX IMVI melanoma): > 100 µM
TGI (SN12C renal): > 100 µM
TGI (UACC-257 melanoma): > 63.8 µM
TGI (SK-MEL-28 melanoma): > 77.2 µM
TGI (CAKI-1 renal): > 100 µM
TGI (CCRF-CEM leukemia): 52.5 µM
TGI (SW-620 colon): > 71.2 µM
TGI (A498 renal): > 90.5 µM
TGI (BT-549 breast): > 100 µM
TGI (SK-MEL-5 melanoma): 30.4 µM
TGI (HCT-15 colon): 97.1 µM
TGI (NCI/ADR-RES ovarian): > 100 µM
TGI (T-47D breast): > 100 µM
TGI (SNB-19 CNS): > 100 µM
TGI (NCI-H23 lung): > 100 µM
TGI (HOP-92 NSCLC): 61.9 µM
TGI (TK-10 renal): > 75.4 µM
TGI (SF-268 CNS): > 100 µM
TGI (HCC-2998 colon): > 55.6 µM
TGI (OVCAR-4 ovarian): > 100 µM
TGI (K-562 leukemia): 28.4 µM
TGI (SK-MEL-2 melanoma): > 100 µM
TGI (HCT-116 colon): > 100 µM
TGI (786-0 renal): > 57.9 µM
TGI (SF-295 CNS): 46.4 µM
TGI (SK-OV-3 ovarian): > 100 µM
TGI (RXF 393 renal): > 100 µM
TGI (MCF7 breast): > 100 µM
TGI (PC-3 prostate): > 100 µM
TGI (HT29 colon): > 100 µM
TGI (HOP-62 NSCLC): > 100 µM
TGI (NCI-H460 lung): > 69.2 µM
TGI (RPMI-8226 leukemia): 44.5 µM
TGI (ACHN renal): > 100 µM
TGI (HS 578T breast): 3.75 µM
TGI (OVCAR-8 ovarian): > 100 µM
TGI (A549 NSCLC): > 100 µM
TGI (COLO 205 colon): 36.1 µM
TGI (DU-145 prostate): > 100 µM
TGI (MDA-MB-435): > 94.6 µM
TGI (UO-31 renal): > 100 µM
TGI (MALME-3M melanoma): > 100 µM
TGI (NCI-H226 lung): > 95 µM
TGI (OVCAR-3 ovarian): > 100 µM
TGI (UACC-62 melanoma): > 100 µM
TGI (U251 CNS): > 100 µM
TGI (EKVX NSCLC): > 100 µM
TGI (MOLT-4 leukemia): 28.4 µM
TGI (NCI-H522 lung): > 70.1 µM
TGI (MDA-N): > 100 µM
TGI (MDA-MB-231 breast): > 79.2 µM
TGI (SNB-75 CNS): > 100 µM
TGI (SF-539 CNS): 52 µM
TGI (KM12 colon): > 100 µM
